In the supplement of paper PMC10307832:

Assays:
Assay in all cases: relative viability (nuclei count vs DMSO), 5 days (fraction); higher = more cells survive
FH535 + Trametinib = compound: CC1=C(C=CC(=C1)[N+](=O)[O-])NS(=O)(=O)C2=C(C=CC(=C2)Cl)Cl [FH535] + CC(=O)Nc1cccc(-n2c(=O)n(C3CC3)c(=O)c3c(Nc4ccc(I)cc4F)n(C)c(=O)c(C)c32)c1 [Trametinib] (partner 0.02 µM)
Procedure, shortened: (§1)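 Dosing by pin tool came one day after lung cancer cell lines were seeded in 1536-well plates, using either one drug or a fixed anchor-drug dose plus five library-drug doses (not always all listed) in √10 steps. After 5 days, nuclei were counted on 4× images. Relative viability is treated-well nuclei count divided by vehicle-well nuclei count, and values are medians of duplicate plates.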

FH535 + Luminespib = compound: CC1=C(C=CC(=C1)[N+](=O)[O-])NS(=O)(=O)C2=C(C=CC(=C2)Cl)Cl [FH535] + CCNC(=O)c1noc(-c2cc(C(C)C)c(O)cc2O)c1-c1ccc(CN2CCOCC2)cc1 [Luminespib] (partner 0.01 µM)
Procedure, shortened: as §1

FH535 + OSI-027 = compound: CC1=C(C=CC(=C1)[N+](=O)[O-])NS(=O)(=O)C2=C(C=CC(=C2)Cl)Cl [FH535] + COc1cccc2cc(-c3nc([C@H]4CC[C@H](C(=O)O)CC4)n4ncnc(N)c34)[nH]c12 [OSI-027] (partner 0.5 µM)
Procedure, shortened: as §1

FH535 + AZD7762 = compound: CC1=C(C=CC(=C1)[N+](=O)[O-])NS(=O)(=O)C2=C(C=CC(=C2)Cl)Cl [FH535] + NC(=O)Nc1cc(-c2cccc(F)c2)sc1C(=O)N[C@H]1CCCNC1 [AZD7762] (partner 0.2 µM)
Procedure, shortened: as §1

FH535 + Vorinostat = compound: CC1=C(C=CC(=C1)[N+](=O)[O-])NS(=O)(=O)C2=C(C=CC(=C2)Cl)Cl [FH535] + O=C(CCCCCCC(=O)Nc1ccccc1)NO [Vorinostat] (partner 1 µM)
Procedure, shortened: as §1

| Cell Line | relative viability (FH535 + Trametinib; first compound 0.04 µM) | relative viability (FH535 + Trametinib; first compound 0.1265 µM) | relative viability (FH535 + Trametinib; first compound 0.4 µM) | relative viability (FH535 + Trametinib; first compound 1.265 µM) | relative viability (FH535 + Luminespib; first compound 0.04 µM) | relative viability (FH535 + Luminespib; first compound 0.1265 µM) | relative viability (FH535 + Luminespib; first compound 0.4 µM) | relative viability (FH535 + Luminespib; first compound 1.265 µM) | relative viability (FH535 + OSI-027; first compound 0.04 µM) | relative viability (FH535 + OSI-027; first compound 0.1265 µM) | relative viability (FH535 + OSI-027; first compound 0.4 µM) | relative viability (FH535 + OSI-027; first compound 1.265 µM) | relative viability (FH535 + AZD7762; first compound 0.04 µM) | relative viability (FH535 + AZD7762; first compound 0.1265 µM) | relative viability (FH535 + AZD7762; first compound 0.4 µM) | relative viability (FH535 + AZD7762; first compound 1.265 µM) | relative viability (FH535 + Vorinostat; first compound 0.04 µM) | relative viability (FH535 + Vorinostat; first compound 0.1265 µM) | relative viability (FH535 + Vorinostat; first compound 0.4 µM) | relative viability (FH535 + Vorinostat; first compound 1.265 µM) |
| --- | --- | --- | --- | --- | --- | --- | --- | --- | --- | --- | --- | --- | --- | --- | --- | --- | --- | --- | --- | --- |
| LK-2 | 0.637 | 0.688 | 0.81 | 0.732 | 0.201 | 0.165 | 0.168 | 0.173 | 0.181 | 0.208 | 0.2 | 0.155 | 0.425 | 0.459 | 0.323 | 0.39 | 0.166 | 0.301 | 0.29 | 0.485 |
| LOU-NH91 | 0.729 | 0.819 | 0.75 | 0.525 | 0.333 | 0.326 | 0.369 | 0.288 | 0.708 | 0.815 | 0.557 | 0.397 | 0.767 | 0.779 | 0.608 | 0.428 | 0.877 | 0.982 | 0.652 | 0.524 |
| LU99A | 0.475 | 0.572 | 0.576 | 0.338 | 0.225 | 0.272 | 0.209 | 0.236 | 0.241 | 0.304 | 0.284 | 0.279 | 0.205 | 0.353 | 0.354 | 0.328 | 0.356 | 0.484 | 0.487 | 0.464 |
| LXF-289 | 0.726 | 0.689 | 0.62 | 0.436 | 0.635 | 0.837 | 0.611 | 0.61 | 0.735 | 0.809 | 0.688 | 0.69 | 1.05 | 1.1 | 1.03 | 0.873 | 0.58 | 0.762 | 0.698 | 0.574 |
| NCI-H23 | 0.345 | 0.448 | 0.418 | 0.306 |  | 0.207 | 0.199 | 0.225 | 0.408 | 0.471 | 0.642 | 0.546 | 0.22 | 0.391 | 0.275 | 0.307 | 0.399 | 0.535 | 0.564 | 0.378 |
| NCI-H322M | 0.47 | 0.459 | 0.478 | 0.526 | 0.816 | 0.904 | 0.866 | 0.805 | 0.543 | 0.54 | 0.577 | 0.394 | 0.522 | 0.549 | 0.515 | 0.633 | 0.898 | 0.878 | 0.83 | 0.744 |
| NCI-H358 | 0.134 | 0.143 | 0.124 | 0.127 | 0.325 | 0.368 | 0.293 | 0.308 | 0.737 | 0.536 | 0.648 | 0.476 | 0.495 | 0.571 | 0.529 | 0.252 | 0.588 | 0.778 | 0.664 | 0.43 |
| NCI-H441 | 0.454 | 0.334 | 0.428 | 0.394 | 0.319 | 0.291 | 0.356 | 0.352 | 0.529 | 0.559 | 0.508 | 0.527 | 1.09 | 1.32 | 1.09 | 1.02 | 0.733 | 0.59 | 0.843 | 0.757 |
| NCI-H460 | 0.12 | 0.152 | 0.157 | 0.103 | 0.0362 | 0.0377 | 0.0408 | 0.0254 | 0.612 | 0.754 | 0.542 | 0.375 | 0.616 | 0.615 | 0.603 | 0.337 | 0.72 | 0.743 | 0.674 | 0.447 |
| NCI-H522 | 0.731 | 0.968 | 0.804 | 0.622 | 1.29 | 1.17 | 1.16 | 0.996 | 0.7 | 0.767 | 0.734 | 0.636 | 0.717 | 0.947 | 0.688 | 0.864 | 0.855 | 0.858 | 0.731 | 0.78 |
| NCI-H596 | 0.814 | 0.864 | 0.854 | 0.748 | 1.07 | 1.11 | 0.85 | 0.992 | 0.697 | 0.551 | 0.55 | 0.652 | 1.04 | 1.18 | 0.933 | 1.05 | 0.579 | 0.511 | 0.569 | 0.544 |
| NCI-H647 | 0.51 | 0.566 | 0.424 | 0.418 | 0.156 | 0.167 | 0.125 | 0.23 | 0.486 | 0.809 | 0.673 | 0.543 | 0.557 | 0.519 | 0.322 | 0.418 | 0.442 | 0.63 | 0.408 | 0.462 |
| NCI-H650 | 0.887 | 0.953 | 1.04 | 0.795 | 0.639 | 0.732 | 0.796 | 0.619 | 0.465 | 0.515 | 0.433 | 0.344 | 0.877 | 1.03 | 1.18 | 0.67 | 0.342 | 0.383 | 0.385 | 0.365 |
| NCI-H727 | 0.402 | 0.362 | 0.365 | 0.387 | 0.323 | 0.5 | 0.327 | 0.297 | 0.554 | 0.498 | 0.545 | 0.478 | 0.409 | 0.59 | 0.595 | 0.59 | 1.17 | 1.15 | 1.1 | 1.22 |
| NCI-H838 | 0.536 | 0.52 | 0.452 | 0.462 | 0.278 | 0.419 | 0.261 | 0.247 | 0.388 | 0.423 | 0.388 | 0.328 | 0.893 | 1 | 0.902 | 0.891 | 0.704 | 0.754 | 0.659 | 0.591 |
| NCI-H1355 | 0.397 | 0.428 | 0.406 | 0.329 | 0.667 | 0.761 | 0.72 | 0.463 | 0.366 | 0.466 | 0.349 | 0.303 | 0.688 | 0.843 | 0.727 | 0.76 | 0.574 | 0.631 | 0.565 | 0.534 |
| NCI-H1395 | 0.936 | 1.02 | 1.06 | 0.874 | 0.738 | 0.576 | 0.784 | 0.581 | 0.581 | 0.613 | 0.61 | 0.476 | 0.381 | 0.426 | 0.368 | 0.393 | 0.543 | 0.679 | 0.697 | 0.532 |
| NCI-H1437 | 0.498 | 0.567 | 0.386 | 0.32 | 1.1 | 1 | 0.858 | 0.449 | 0.862 | 0.851 | 0.647 | 0.434 | 1.11 | 1.13 | 1.01 | 0.502 | 0.905 | 0.847 | 0.629 | 0.304 |
| NCI-H1651 | 0.81 | 0.78 | 0.79 | 0.666 | 1.01 | 0.701 | 0.748 | 0.591 | 0.675 | 0.695 | 0.618 | 0.507 | 0.368 | 0.511 | 0.502 | 0.466 | 0.473 | 0.531 | 0.606 | 0.52 |
| NCI-H1666 | 0.861 | 0.869 | 0.905 | 0.69 | 0.988 | 0.933 | 0.966 | 0.983 | 0.866 | 0.843 | 0.777 | 0.705 | 0.727 | 0.899 | 0.772 | 0.747 | 1.01 | 0.995 | 0.992 | 0.959 |
| NCI-H1734 | 0.574 | 0.671 | 0.656 | 0.558 |  | 0.207 | 0.215 | 0.176 |  | 0.633 | 0.55 | 0.503 | 0.562 | 0.603 | 0.563 | 0.554 | 0.547 | 0.784 | 0.822 | 0.778 |
| NCI-H1755 | 0.755 | 0.809 | 0.725 | 0.739 | 0.394 | 0.445 | 0.38 | 0.418 | 0.552 | 0.675 | 0.683 | 0.629 | 0.418 | 0.439 | 0.475 | 0.444 | 0.616 | 0.807 | 0.752 | 0.707 |
| NCI-H1793 | 0.4 | 0.421 | 0.425 | 0.399 | 0.168 | 0.229 | 0.19 | 0.143 | 0.295 | 0.225 | 0.306 | 0.244 | 0.43 | 0.631 | 0.418 | 0.483 | 0.505 | 0.519 | 0.63 | 0.568 |
| NCI-H1915 | 0.312 | 0.324 | 0.296 | 0.247 | 0.81 | 0.797 | 0.775 | 0.644 | 0.542 | 0.683 | 0.552 | 0.525 | 0.604 | 0.77 | 0.713 | 0.669 | 0.44 | 0.481 | 0.534 | 0.532 |
| NCI-H1944 | 0.405 | 0.42 | 0.398 | 0.325 | 0.672 | 0.82 | 0.727 | 0.669 | 0.35 | 0.449 | 0.364 | 0.365 | 0.316 | 0.527 | 0.588 | 0.48 | 0.291 | 0.575 | 0.425 | 0.509 |
| NCI-H1975 | 0.329 | 0.232 | 0.287 | 0.329 | 0.178 | 0.22 | 0.164 | 0.167 | 0.721 | 0.705 | 0.584 | 0.534 | 0.638 | 0.793 | 0.591 | 0.554 | 0.651 | 0.744 | 0.675 | 0.622 |
| NCI-H1993 | 0.57 | 0.566 | 0.496 | 0.52 | 0.87 | 0.736 | 0.55 | 0.449 | 0.556 | 0.522 | 0.531 | 0.617 | 0.927 | 0.704 | 0.626 | 0.532 | 0.822 | 0.801 | 0.606 | 0.57 |
